Source: patent US20240109864A1, “SUBSTITUTED PYRAZOLYL PIPERIDINE CARBOXYLIC ACIDS” (BAYER AKTIENGESELLSCHAFT, priority 2020, published 2024)
pEC50: −log10 of the molar value. Counter-ions that a name gives are not always drawn.

Assays:
[1] = target: T1, recombinant guanylate cyclase reporter cell line (Rattus norvegicus, UniProt P20595); assay: Effect on a recombinant guanylate cyclase reporter cell line; type: cell-based; settings: in some cases mean values from individual determinations; for MEC: MEC = minimum effective concentration; for pEC50: half maximal effective concentration
T1 construct: expressed in transfected cells
T1 sequence (P20595 1-619): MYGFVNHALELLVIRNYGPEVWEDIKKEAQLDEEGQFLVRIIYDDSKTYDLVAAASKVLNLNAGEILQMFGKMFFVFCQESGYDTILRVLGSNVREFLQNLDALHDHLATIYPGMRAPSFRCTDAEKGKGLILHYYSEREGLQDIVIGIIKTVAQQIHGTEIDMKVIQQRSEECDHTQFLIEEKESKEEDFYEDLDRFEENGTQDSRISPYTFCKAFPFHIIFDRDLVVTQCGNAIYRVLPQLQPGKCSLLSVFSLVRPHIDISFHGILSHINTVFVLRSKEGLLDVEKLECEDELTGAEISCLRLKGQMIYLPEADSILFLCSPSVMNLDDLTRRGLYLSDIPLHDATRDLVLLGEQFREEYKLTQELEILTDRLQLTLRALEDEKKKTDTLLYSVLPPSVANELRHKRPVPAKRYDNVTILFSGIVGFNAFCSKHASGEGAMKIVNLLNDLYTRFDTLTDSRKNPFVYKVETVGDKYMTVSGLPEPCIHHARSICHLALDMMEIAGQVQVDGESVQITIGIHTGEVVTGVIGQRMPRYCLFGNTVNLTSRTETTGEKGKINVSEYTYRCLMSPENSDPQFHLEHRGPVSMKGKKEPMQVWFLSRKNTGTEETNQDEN
T1 sequence (P19686 1-690 partner): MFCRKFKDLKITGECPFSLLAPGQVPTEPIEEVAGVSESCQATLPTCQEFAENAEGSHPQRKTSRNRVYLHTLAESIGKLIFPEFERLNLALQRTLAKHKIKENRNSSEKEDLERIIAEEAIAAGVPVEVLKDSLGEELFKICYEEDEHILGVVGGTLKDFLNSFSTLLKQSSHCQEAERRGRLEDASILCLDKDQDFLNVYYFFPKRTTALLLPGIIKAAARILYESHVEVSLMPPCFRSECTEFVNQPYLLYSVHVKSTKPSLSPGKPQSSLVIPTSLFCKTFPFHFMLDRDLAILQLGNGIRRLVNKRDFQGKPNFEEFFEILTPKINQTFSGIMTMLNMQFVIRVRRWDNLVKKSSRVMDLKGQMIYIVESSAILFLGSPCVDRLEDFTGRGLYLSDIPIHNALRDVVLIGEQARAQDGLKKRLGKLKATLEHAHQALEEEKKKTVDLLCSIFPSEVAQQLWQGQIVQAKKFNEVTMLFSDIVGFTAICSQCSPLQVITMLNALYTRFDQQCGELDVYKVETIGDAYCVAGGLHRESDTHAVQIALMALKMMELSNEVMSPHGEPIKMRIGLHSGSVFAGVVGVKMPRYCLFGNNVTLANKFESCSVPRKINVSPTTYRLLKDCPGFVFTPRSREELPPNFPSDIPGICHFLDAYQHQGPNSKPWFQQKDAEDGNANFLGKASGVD
Method: The cellular activity of the compounds according to the invention was determined using a recombinant guanylate cyclase reporter cell line, as described in F. Wunder et al., Anal. Biochem. 339, 104-112 (2005).

[2] = Pharmacokinetic parameters following intravenous administration in rats; type: in vivo
Method: (§1) The pharmacokinetic parameters of the compounds according to the invention were determined in male Wistar rats and/or in female beagles and/or in cynomolgus monkeys and/or in male CD-1 mice. Intravenous administration in the case of mice and rats was carried out by means of a species-specific plasma/DMSO formulation, and in the case of dogs and monkeys by means of a water/PEG400/ethanol formulation. In all species, oral administration of the dissolved substance was performed via gavage, based on a water/PEG400/ethanol formulation.
An internal standard (which may also be a chemically unrelated substance) was added to the samples of the compounds of the invention, calibration samples and qualifiers, and there followed protein precipitation by means of acetonitrile in excess. […] The supernatant was analysed by LC-MS/MS using C18 reversed-phase columns and variable mobile phase mixtures. The substances were quantified via the peak heights or areas from extracted ion chromatograms of specific selected ion monitoring experiments.
The plasma concentration/time plots determined were used to calculate the pharmacokinetic parameters such as AUC, Cmax, t1/2 (terminal half-life), F (bioavailability), MRT (mean residence time) and CL (clearance), by means of a validated pharmacokinetic calculation program. […]

[3] = Pharmacokinetic parameters following oral administration in rats; type: in vivo
Method: as §1
An internal standard (which may also be a chemically unrelated substance) was added to the samples of the compounds of the invention, calibration samples and qualifiers, and there followed protein precipitation by means of acetonitrile in excess. Addition of a buffer solution matched to the LC conditions, and subsequent vortexing, was followed by centrifugation at 1000 g. The supernatant was analysed by LC-MS/MS using C18 reversed-phase columns and variable mobile phase mixtures. The substances were quantified via the peak heights or areas from extracted ion chromatograms of specific selected ion monitoring experiments.
The plasma concentration/time plots determined were used to calculate the pharmacokinetic parameters such as AUC, Cmax, t1/2 (terminal half-life), F (bioavailability), MRT (mean residence time) and CL (clearance), by means of a validated pharmacokinetic calculation program.
Since the substance quantification was performed in plasma, it was necessary to determine the blood/plasma distribution of the substance in order to be able to adjust the pharmacokinetic parameters correspondingly. For this purpose, a defined amount of substance was incubated in K3 EDTA whole blood of the species in question in a rocking roller mixer for 20 min. After centrifugation at 1000 g, the plasma concentration was measured (by means of LC-MS/MS; see above) and determined by calculating the ratio of the Cblood/Cplasma value.

| Structure (SMILES) | MEC [1] [nM] | pEC50 [1] | also measured |
| --- | --- | --- | --- |
| O=C(O)c1cnn(C2CCCN(c3cc(Cl)ccc3-c3ccc(N4CCN(CC5CC5)CC4)cc3)C2)c1C(F)(F)F (single isomer, unassigned) [Example 7, 1-[1-[5-Chloro-2-[4-[4-(cyclopropylmethyl)piperazin-1-yl]phenyl]phenyl]-3-piperidyl]-5-(trifluoromethyl)pyrazole-4-carboxylic acid hydrochloride] | 2.0 | – | AUCnorm [2]: 1.37 kg·h/L; bioavailability in comparison to prior art (WO 2012/058132) ([3]; after oral (p.o.) application): lower bioavailability; AUCnorm ([3]; oral administration in rats): 0.52 kg·h/L; F ([3]; oral administration in rats, F = bioavailability): 37.4% |
| CCN1CCN(c2ccc(-c3ccc(Cl)cc3N3CCCC(n4ncc(C(=O)O)c4C(F)(F)F)C3)c(C)c2)CC1 (single isomer, unassigned) [Example 73, 1-[1-[5-Chloro-2-[4-(4-ethylpiperazin-1-yl)-2-methyl-phenyl]phenyl]-3-piperidyl]-5-(trifluoromethyl)pyrazole-4-carboxylic acid hydrochloride] | 30.0 | 7.24 | – |
| O=C(O)c1cnn(C2CCCN(c3cc(Cl)ccc3-c3ccc(C4CC4)nc3)C2)c1C(F)(F)F (single isomer, unassigned) [Example 79, 1-[1-[5-Chloro-2-(6-cyclopropyl-3-pyridyl)phenyl]-3-piperidyl]-5-(trifluoromethyl)pyrazole-4-carboxylic acid] | 1.0 | 8.44 | – |
| CC(C)CN1CCc2cc(-c3ccc(Cl)cc3N3CCCC(n4ncc(C(=O)O)c4C(F)(F)F)C3)ccc2C1 (single isomer, unassigned) [Example 81, 1-[1-[5-Chloro-2-(2-isobutyl-3,4-dihydro-1H-isoquinolin-6-yl)phenyl]-3-piperidyl]-5-(trifluoromethyl)pyrazole-4-carboxylic acid hydrochloride] | 30.0 | 7.37 | – |
| CCC(=O)N1CCC(c2ccc(-c3ccc(Cl)cc3N3CCCC(n4ncc(C(=O)O)c4C(F)(F)F)C3)cc2)CC1 (single isomer, unassigned) [Example 82, 1-[1-[5-Chloro-2-[4-(1-propanoyl-4-piperidyl)phenyl]phenyl]-3-piperidyl]-5-(trifluoromethyl)pyrazole-4-carboxylic acid hydrochloride] | 0.3 | 8.41 | – |
| CCC(=O)N1CCC(c2ccc(-c3ccc(Cl)cc3N3CCCC(n4ncc(C(=O)O)c4C(F)(F)F)C3)cc2)CC1 (single isomer, unassigned) [Example 83, 1-[1-[5-Chloro-2-[4-(1-propanoyl-4-piperidyl)phenyl]phenyl]-3-piperidyl]-5-(trifluoromethyl)pyrazole-4-carboxylic acid hydrochloride] | 0.3 | 8.41 | – |
| O=C(O)c1cnn(C2CCCN(c3cc(Cl)ccc3-c3ccc(C4CCN(C(=O)C5CC5)CC4)cc3)C2)c1C(F)(F)F (single isomer, unassigned) [Example 84, 1-[1-[5-Chloro-2-[4-[1-(cyclopropanecarbonyl)-4-piperidyl]phenyl]phenyl]-3-piperidyl]-5-(trifluoromethyl)pyrazole-4-carboxylic acid hydrochloride] | – | 8.60 | MEC ([1]; hydrochloride): 0.3 nM |
| O=C(O)c1cnn(C2CCCN(c3cc(Cl)ccc3-c3ccc(C4CCN(C(=O)C5CC5)CC4)cc3)C2)c1C(F)(F)F (single isomer, unassigned) [Example 85, 1-[1-[5-Chloro-2-[4-[1-(cyclopropanecarbonyl)-4-piperidyl]phenyl]phenyl]-3-piperidyl]-5-(trifluoromethyl)pyrazole-4-carboxylic acid hydrochloride] | – | 8.96 | MEC ([1]; hydrochloride): <0.3 nM |

More lines, main results first:

| MEC [1] [nM] | pEC50 [1] | Structure (SMILES) | also measured |
| --- | --- | --- | --- |
| – | 7.98 | O=C(O)c1cnn(C2CCCN(c3cc(Cl)ccc3-c3ccc(N4CCN(CC(F)(F)F)CC4)nc3)C2)c1C(F)(F)F (single isomer, unassigned) [Example 74, 1-[1-[5-Chloro-2-[6-[4-(2,2,2-trifluoroethyl)piperazin-1-yl]-3-pyridyl]phenyl]-3-piperidyl]-5-(trifluoromethyl)pyrazole-4-carboxylic acid hydrochloride] | MEC ([1]; hydrochloride): 1.0 nM |
| 3.0 | 7.80 | O=C(O)c1cnn(C2CCCN(c3cc(Cl)ccc3-c3ccc(N4CCN(CC(F)(F)F)CC4)nc3)C2)c1C(F)(F)F (single isomer, unassigned) [Example 75, 1-[1-[5-Chloro-2-[6-[4-(2,2,2-trifluoroethyl)piperazin-1-yl]-3-pyridyl]phenyl]-3-piperidyl]-5-(trifluoromethyl)pyrazole-4-carboxylic acid] | – |
| 1.0 | 8.32 | O=C(O)c1cnn(C2CCCN(c3cc(Cl)ccc3-c3ccc(N4CCN(CCC(F)(F)F)CC4)nc3)C2)c1C(F)(F)F (single isomer, unassigned) [Example 76, 1-[1-[5-Chloro-2-[6-[4-(3,3,3-trifluoropropyl)piperazin-1-yl]-3-pyridyl]phenyl]-3-piperidyl]-5-(trifluoromethyl)pyrazole-4-carboxylic acid hydrochloride] | – |
| 30.0 | 7.08 | O=C(O)c1cnn(C2CCCN(c3cc(Cl)ccc3-c3ccc(N4CCN(CC(F)(F)F)CC4)nc3)C2)c1C(F)(F)F (single isomer, unassigned) [Example 77, 1-[1-[5-Chloro-2-[6-[4-(2,2,2-trifluoroethyl)piperazin-1-yl]-3-pyridyl]phenyl]-3-piperidyl]-5-(trifluoromethyl)pyrazole-4-carboxylic acid] | – |
| 1.0 | 7.88 | O=C(O)c1cnn(C2CCCN(c3cc(Cl)ccc3-c3ccc(C4CN(CCC(F)(F)F)C4)cc3)C2)c1C(F)(F)F (single isomer, unassigned) [Example 78, 1-[1-[5-Chloro-2-[4-[1-(3,3,3-trifluoropropyl)azetidin-3-yl]phenyl]phenyl]-3-piperidyl]-5-(trifluoromethyl)pyrazole-4-carboxylic acid hydrochloride] | – |
| 10.0 | 7.07 | O=C(O)c1cnn(C2CCCN(c3cc(Cl)ccc3-c3ccc4c(c3)CCN(CC(F)(F)F)C4)C2)c1C(F)(F)F (single isomer, unassigned) [Example 80, 1-[1-[5-Chloro-2-[2-(2,2,2-trifluoroethyl)-3,4-dihydro-1H-isoquinolin-6-yl]phenyl]-3-piperidyl]-5-(trifluoromethyl)pyrazole-4-carboxylic acid] | – |
